The record followed here is US6506797B1, “Substituted phenylpropionic acid derivatives as agonists to human peroxisome proliferator-activated receptor (PPAR) α” (Kyorin Pharmaceutical Co., Ltd., priority 1999, dated 2003).

The structures appear in SMILES notation.

Data set [1] deals with T1, human peroxisome proliferator-activated receptor (PPAR)α (Homo sapiens, UniProt Q07869).
T1 sequence (Q07869 239-466 limits assumed): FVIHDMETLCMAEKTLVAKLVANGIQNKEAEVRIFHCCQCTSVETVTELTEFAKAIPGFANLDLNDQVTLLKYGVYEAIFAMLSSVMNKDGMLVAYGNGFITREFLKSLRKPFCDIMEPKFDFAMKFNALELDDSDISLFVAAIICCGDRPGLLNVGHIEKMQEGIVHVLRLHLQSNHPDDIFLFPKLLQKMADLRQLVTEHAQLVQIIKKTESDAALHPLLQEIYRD
The data set is described as follows: Transactivation assay for human PPARα (CHO cells, luciferase reporter). Format: cell-based. Details: expressed in transfected cells; host or cells: CHO cells. An excerpt: Transactivation assay for human peroxisome proliferator-activated receptor (PPAR)α
To CHO cells cultured in a Dulbecco-modified Eagle's medium containing 10% delipidated fetal calf serum (FCS/DMEM), receptor plasmid that eXpresses fused protein of DNA-binding domain being transcription factor of yeast with ligand-binding domain of human type PPARα (Biochemistry, 1993, 32, 5598) its reporter plasmid (STRATAGENE Corp.), and luciferase plasmid of Renilla (Promega Corp.) as an internal standard were cotransfected with lipofectamine in the serum-free state. Thereafter, testing compound and (8S)-HETE being control compound were added to 10% FCS/DMEM and both luciferase activities were measured after 24 hours, which were corrected with internal standard.
Test of transcription activation on human peroxisome proliferator-activated receptor (PPAR)α
The test of transcription activation on human peroxisome proliferator-activated receptor (PPAR)α shown in Test example 1 was performed to obtain results shown in Table 19.

Data set [2] addresses T1, human peroxisome proliferator-activated receptor (PPAR)α. As to the kind of experiment: Binding assay to human PPARα (His-hPPARα-LBD, [3H] ligand). More on the design: expressed in transfected cells. Here is the method:
Binding assay to human peroxisome proliferator-activated receptor (PPAR)α
A plasmid that eXpresses protein of human PPARα-ligand binding domain attached with histidine tag (His-hPPARα-LBD) was cultured by infecting to Escherichia coli (JM-109) and aimed protein was recovered and purified. [^3H]-5-[(2,4-dioxothiazolidine-5-yl)methyl]-2-methoxy-N-[[4-(trifluoromethyl)phenyl]methyl]benzamide (Amasham), testing compound and (8S)-HETE being control compound were incubated for 45 minutes at room temperature at various concentrations together with His-hPPARα-LBD protein in 10 mmol/l Tris hydrochloride buffer (pH 7.4) containing 50 mmol/l potassium chloride and 10 mmol/l dithiothreitol. After the reaction, amount of [^3H]-5-[(2,4-dioxothiazolidine-5-yl)methyl]-2-methoxy-N-[[4-(trifluoromethyl)phenyl]methyl]benzamide was determined by a liquid scintillation counter.

The subject of the next data set is SD strain male rats. The data set is described as follows: Test on lipid-lowering action in fructose-loaded-diet rats. It counts as in vivo. The following applies: versus vehicle control. Here is the method:
Test on Lipid-lowering Action
After SD strain male rats (Nippon Charles Liver) were bred from 8-(weeks old) with feed (Nippon Clear), test was started from 11-(weeks old). After (fasting) for 2 days, testing compound and Bezafibrate (30 mg/kg), being control compound, suspended into 0.5% solution of arabic gum were administered orally once a day for continuous 4 days. For the feed during administration period, AIN-93M modified fructose-loaded diet (Oriental Yeast) was used. After administration for 4 days, blood was collected from (trial) vein and the blood levels of triglyceride, total cholesterol, and free fatty acid were determined by enzymatic method.
The lowering rate of triglyceride in blood, overall cholesterol and free fatty acid was calculated, respectively, by determining the proportion of a figure obtained by subtracting average level of triglyceride in blood (or, average level of (total) cholesterol or level of free fatty acid) of dosage group from average level of triglyceride in blood (or, average level of (total) cholesterol or level of free fatty acid) of vehicle control group to average level of triglyceride in blood (or, average level of overall cholesterol or level of free fatty acid) of vehicle control group.

Setting [3] is: 30 mg/kg orally once a day for 4 days.
The mark [4] stands for this setting: 10 mg/kg orally once a day for 4 days.
The mark [5] stands for this setting: Table 19 (Test example 4), method of Test example 1, read-out: Transcriptional activity EC50.

In the case of `CC[C@@H](Cc1ccc(OC)c(C(=O)NCc2ccc(C(F)(F)F)cc2)c1)C(=O)O`, the melting point lay in the range of 128 to 130 °C.

In the case of `COc1ccc(CC(C)(C)C(=O)O)cc1C(=O)NCc1ccc(C(F)(F)F)cc1`, the melting point fell in the range of 151 to 152 °C.

As to `CCC(Cc1ccc(OC)c(C(=O)NCc2ccc(C(F)(F)F)cc2)c1)C(=O)O` (stereo not drawn) [46], the melting point was in the range of 128 to 130 °C.

Take `CCCCC/C=C\C/C=C\C=C\[C@@H](O)C/C=C\CCCC(=O)O` [(8S) HETE, (8S)-HETE, reference compound]: the 50% effective concentration (EC50) in data set [1] (Table 17, CHO cells, human PPARα LBD fusion, luciferase after 24 hours, read-out: Transcriptional activity EC50) was determined as 1.3 µM; in data set [2] (His-hPPARα-LBD, 45 minutes at room temperature, pH 7.4, read-out: Binding activity EC50) it was 0.17 µM.

Consider `CC(C)(Oc1ccc(CCNC(=O)c2ccc(Cl)cc2)cc1)C(=O)O` [Bezafibrate, reference compound], for which, in the data set with SD strain male rats (setting [3]), the “Lowering rate (%) Free fatty acid” value amounted to 37%, the “Lowering rate (%) Total cholesterol” value is given as 49% and the “Lowering rate (%) Triglyceride in blood” value amounted to 64%.

Compound `CCC(Cc1ccc(OC)c(C(=O)NCc2ccc(C(F)(F)F)cc2)c1)C(=O)O` (stereo not drawn) [Example 20, 2-Ethyl-3-[4-methoxy-3-[N-[[4-(trifluoromethyl)phenyl]-methyl]carbamoyl]phenyl]propanoic acid] came in with a melting point of 144.5 to 146.5 °C. Further, the half-maximal effective concentration (EC50) in data set [1] turned out to be 0.0115 µM. The compound further yielded an EC50 in data set [2] of 0.19 µM. In the data set on SD strain male rats (setting [4]), the “Lowering rate (%) Free fatty acid” value is listed as 77%, the “Lowering rate (%) Total cholesterol” value is reported as 25% and the “Lowering rate (%) Triglyceride in blood” value is listed as 53%. Further, in the data set with SD strain male rats (setting [3]), the “Lowering rate (%) Free fatty acid” value is recorded as 53%, the “Lowering rate (%) Total cholesterol” value is given as 55% and the “Lowering rate (%) Triglyceride in blood” value is 56%.

Turning to `CCC(Cc1ccc(OC)c(C(=O)NCc2ccc(-c3ccccc3)cc2)c1)C(=O)O` (stereo not drawn) [Example 22], the melting point was 158.5 to 159.5 °C. The compound further yielded an EC50 in data set [1] of 0.11 µM. In addition, the EC50 in data set [2] is 0.43 µM.

For `CCC(Cc1ccc(OC)c(C(=O)NCc2ccc(Oc3ccccc3)cc2)c1)C(=O)O` (stereo not drawn) [Example 23], the EC50 is 0.024 µM in data set [1] and 0.74 µM in data set [2].

The compound `COc1ccc(CC(OC)C(=O)O)cc1C(=O)NCc1ccc(C(F)(F)F)cc1` (stereo not drawn) [Example 24] had a melting point of 161 to 163 °C. This compound returned an EC50 in data set [1] of 0.18 µM. In data set [2], a half-maximal effect (EC50) was put at 0.56 µM.

On to `COc1ccc(CC(C)C(=O)O)cc1C(=O)NCc1ccc(C(F)(F)F)cc1` (stereo not drawn) [Example 30], for which the melting point was 155 to 156 °C. The compound also registered an EC50 in data set [1] of 0.2 µM. Also, in data set [2], the 50% effective concentration (EC50) came to 0.84 µM.

Consider `CC[C@@H](Cc1ccc(OC)c(C(=O)NCc2ccc(Oc3ccc(F)cc3)cc2)c1)C(=O)O` [Example 174, (S)-(+)-2-ethyl-3-[4-methoxy-3-[N-[(4-fluorophenoxyphenyl)methyl]carbamoyl]phenyl]propanoic acid], for which the EC50 in data set [1] (setting [5]) came to 0.024 µM.

In turn, `CCC[C@@H](Cc1ccc(OC)c(C(=O)NCc2ccc(Oc3ccccc3)cc2)c1)C(=O)O` [Example 178] displayed a melting point of 85 to 86 °C. In addition, the EC50 in data set [1] (setting [5]) is 0.094 µM.

On to `CCC[C@@H](Cc1ccc(OC)c(C(=O)NCc2ccc(Oc3ccc(F)cc3)cc2)c1)C(=O)O` [Example 179], for which the melting point lay within 126 to 127 °C. Moreover, in data set [1] (setting [5]), the EC50 worked out at 0.0092 µM.
